Columns and labels:
osteoclast = test: Osteoclast differentiation inhibition, myeloplast-derived macrophage with hM-CSF and RANKL, TRAP staining (Example 4); format: cell-based, mice (C57BL/6J); settings: 10 mM; 30 ng/ml hM-CSF, 100 ng/ml RANKL; 4 days
Description: Myeloplasts collected from five-week mice (C57BL/6J) were added to 48-well plate and cultured in a differentiation medium [a-MEM (Invitrogen. co.), 10% (v/v) Fetal bovine serum (FBS), 100 units/ml penicillin, 100 μg/ml streptomycin] including 30 ng/ml of hM-CSF (R&D system Inc.) that is a macrophage differentiator for three days under the conditions of 37° C., 95% (v/v) air, and 5% (v/v) CO2 to be 4×10^4 cell/well so that the macrophase derived from the myeloplast was obtained. In this situation, in addition to the concentration of 30 ng/ml hM-CSF, mouse RANKL that is an osteoclast differentiator was expressed in E. coli; it was purely separated and purified; it was added in the concentration of 100 ng/ml; and then it was continuously cultured under the same conditions to induce the cell differentiation to the osteoclast. After culturing for 4 days, the cell was fixed with 3.7% formaldehyde for 15 minutes at room temperature; washed with distilled water twice; the staining solution made by mixing acetate, Fast Gargnet GBC base, naphtol AS-BI phosphate, […], and tartrate in the ratio as disclosed in the instructions of Acid Phosphatase, Leukocyte (TRAP) Kit™ (Sigma Co.) was added to be […]; and then reacted at 37° C. for 20 minutes to stain the differentiated osteoclast.

mouse osteoclast = test: Osteoclast differentiation inhibition, mouse osteoclast with M-CSF and RANKL (Example 5); format: cell-based; settings: M-CSF 30 ng/ml, RANKL 200 ng/ml
Description: For FIG. 6, the mouse osteoclast (2×10^4/well) was added to 48 well plate; M-CSF (30 ng/ml) and RANKL (200 ng/ml) were added at the same time; and then 10 mM of each of C01, CO2, and G10 that are an osteopontin inhibitor was treated to analysis the inhibition ability for differentiating to an osteoclast.

mouse skull calvaria = test: Mouse Calvaria Model, LPS-induced born destruction; format: in vivo; settings: Lipopolysaccharide 10 mg/kg to mouse skull; compound 10 mg/kg
Description: […] On 5 days, the mice calvaria were extracted; the cross-section of the calvaria was stained with H&E Staining to identify; and then the inhibition degree of the born destruction effect was analyzed using Image-pro Plus 4.5 (Media Cybernetics, Inc.).

Row | SMILES | inhibition ability for differentiating to the osteoclast (osteoclast) | inhibition ability for differentiating to the osteoclast (mouse osteoclast) | effect on inhibiting the born destruction effect due to LPS in vivo (mouse skull calvaria)
1 | O=C(O)C1CSC(c2ccccn2)N1 (stereo not shown) [IPS-02003, 2-Pyridin-2-yl-thiazolidine-4-carboxylic acid] | no inhibition ability | no inhibition ability | –
2 | O=C1C(O)=C(O)C(=O)c2c(O)c(Cl)cc(O)c21 [IPS-02002, 6-Chloro-2,3,5,8-tetrahydroxy-[1,4]naphthoquinon] | excellent inhibition ability | excellent inhibition ability | –
3 | O=C1C(O)=C(O)C(=O)c2c(O)c(Cl)c(Cl)c(O)c21 [IPS-02001, 6,7-Dichloro-2,3,5,8-tetrahydroxy-[1,4]naphthoquinone] | excellent inhibition ability | excellent inhibition ability | has the effect on inhibiting the born destruction effect

— patent US20120264942A1, “METHOD FOR SCREENING OSTEOPONTIN INHIBITOR AND INHIBITOR OBTAINED FROM THE METHOD” (INNOPHARMASCREEN, INC., priority 2009, published 2012)
